According to PubChem BioAssay AID2305 (GlaxoSmithKline (GSK), 2010):

Each molecule was assayed on P. falciparum 3D7 growth, pLDH absorbance (assay: P. falciparum 3D7 growth inhibition, dose response, strain 3D7 (AID 2305)).

SMILES | IC50
COc1ccc(C2N=C(N)N=C(N)N2OCc2ccccc2)cc1OC (stereo unspecified) | 130 nM
COc1cc(CNc2ccc(N3CCCC3)cc2)cc(Cl)c1OC | 700 nM
N#Cc1ccc2[nH]cc(CN3CCC4(CC3)CN(CCNCc3ccccc3)C(=O)CO4)c2c1 | 760 nM
NC1CCN(Cc2cccc(-c3cccc(-c4nc5ccccc5[nH]4)c3)c2)C1 (stereo unspecified) | 790 nM
CC(C)Cc1ccc(N2CCN(CCCCNC(=O)c3ccc(NC(=O)c4ccc(Cl)c(Cl)c4)cc3)CC2)cc1 | 1200 nM
ON=C(c1nc2ccccc2[nH]1)c1nc2ccccc2[nH]1 | 1090 nM
CC(C)CC(=O)NC1CCN(Cc2c(-c3cccs3)nc3ccccc3c2C(=O)N[C@@H](C)C2CCCCC2)CC1 | 820 nM
COc1ccc(Cl)cc1N1CCN(CCCNC(=O)c2ccc(-c3nc4cc(Cl)c(C)cc4[nH]3)s2)CC1 | 780 nM
O=C(Cc1cnc[nH]1)Nc1cccc(-c2ccc(-c3nc4ccccc4[nH]3)cc2)c1 | 760 nM
CCOC(=O)[C@H](Cc1cc([N+](=O)[O-])c(Oc2ccc(OC)c(Cc3ccc(OC)c(C(C)C)c3)c2)c([N+](=O)[O-])c1)NC(=O)C(F)(F)F | 980 nM
COc1ccc2nccc([C@H](O)CN3CCC(NCc4cc(C)c5c(c4)OCCO5)CC3)c2n1 | 900 nM
Cc1cc(Nc2ccc(C)c(Cl)c2)n2ncnc2n1 | 550 nM
Cc1cccc(CN2CCCC3(CCN(Cc4ccccc4O)C3)C2)c1 (stereo unspecified) | 800 nM
Cc1ccc(NCC(=O)Nc2ccc(F)c(Cl)c2)cc1S(=O)(=O)N1CCOCC1 | 60 nM
COc1cccc(CNC(=O)c2cccc(-c3cccc(CN4CCC(N5CCCC5)CC4)c3)n2)c1 | 1030 nM
O=S(=O)(c1cc(Cl)ccc1Cl)N1CCCCC(c2ccc(C(F)(F)F)cc2)=N1 | 1000 nM
COc1cccc2c(NCCNc3ccnc4c(OC)cccc34)ccnc12 | 270 nM
CCCCCCN(C(=O)OCc1ccccc1)[C@@H]1CCN(C(=O)OC(C)(C)C)C[C@H]1C(=O)OCC | 370 nM
Fc1ccc(Nc2ccnc3cc(I)ccc23)c(Cl)c1 | 1080 nM
CC(C)c1ccc2[nH]c(C(=O)NC3CCC(N4CCCc5ccc(C#N)cc5C4)CC3)cc2c1 (stereo unspecified) | 1090 nM
CCOC(=O)c1[nH]c(-c2cccnc2)nc1NC(=S)NCc1ccccc1 | 710 nM
COC(=O)/C=C/c1ccc(CC(C)NCC(O)c2cccc(Cl)c2)cc1 (stereo unspecified) | 750 nM
O=C(NC1CC1)c1cnc(N2CCC(c3ccccc3)CC2)c(Cl)c1 | 850 nM
CN(CC(=O)Nc1ccc(F)c(F)c1F)c1ncnc2sc(-c3ccccc3)cc12 | 870 nM
COc1ccc2nc(Nc3nc(-c4ccccn4)cs3)sc2c1 | 1120 nM
CC(C)c1ccc(NC(=O)c2ccc(CN3CCCN(CC4CCCCC4)CC3)cc2)cc1 | 620 nM

SMILES | IC50
CN(C)c1ccc(-c2csc(C(=O)NC3CCCCN(CCC(C)(C)C)C3)c2)cc1 (stereo unspecified) | 1050 nM
COc1ccc(S(=O)(=O)NC2CCN(CCNC(=O)Nc3cc(C)nc4ccccc34)C2)cc1 (stereo unspecified) | 1190 nM
CC(C)(C)c1ccc(CN2CCC(NC(=O)c3ccc(-c4cccc(C(F)(F)F)c4)s3)CC2)cc1 | 360 nM
COc1ccc(NS(=O)(=O)c2cccc(C(=O)Nc3ccc(C(F)(F)F)cc3)c2)cc1N1CCN(CC(C)C)CC1 | 840 nM
Cc1ccccc1C1CCN(C2CCC(NC(=O)c3ccc(-c4cccs4)s3)CC2)CC1 (stereo unspecified) | 1030 nM
CC(C)CNCc1ccc(-c2cccc(-c3nc4ccccc4[nH]3)c2)cc1 | 630 nM
Cc1cc(NC(=O)Nc2ccc(C(C)(C)C)cc2)c2ccccc2n1 | 720 nM
CC(C)CN1CCN(c2nc(C#N)c3c(c2C(=S)NC2CCCCC2)CC(C)(C)OC3)CC1 | 300 nM
Cc1ccc2nc(C)cc(NN=Cc3ccccc3[N+](=O)[O-])c2c1 | 170 nM
CCn1cnc2c(N3CCCCS3(=O)=O)cc(C(=O)N[C@@H](Cc3ccccc3)[C@H](O)CNC3CCOCC3)cc21 | 710 nM
c1cc2nc(CCc3nc4ccc(C5=N[C@H]6CCCC[C@H]6N5)cc4[nH]3)[nH]c2cc1C1=N[C@@H]2CCCC[C@@H]2N1 | 230 nM
COc1ccc(CCN2CCC(CN(C)Cc3cnn(-c4ccccc4)c3)CC2)cc1 | 1160 nM
COc1ccc(Nc2nccc(NCCNC(=O)c3cc4ccccc4s3)n2)cc1 | 1020 nM
Clc1ccc2c(N3CCCNCC3)ccnc2c1 | 480 nM
Cc1cccc(C)c1OC(=O)[C@@H](C)[C@@H](O)C1(Sc2ccccc2)CCN(C)CC1 | 730 nM
CCN1CCC(N(Cc2ccc(-c3ccc(C(F)(F)F)cc3)cc2)C(=O)Cn2nc(C)c(=O)cc2SCc2ccc(F)cc2)CC1 | 1010 nM
NC(N)=NN=Cc1ccc2c(c1)Cc1ccccc1-2 | 590 nM
Cc1ccc2c(OCCN3CCC(Cc4cc5c(cc4F)OCC(=O)N5)CC3)cc(F)cc2n1 | 630 nM
CCOc1cccc(C(=O)Nc2nonc2-c2ccc(OC)c(OC)c2)c1 | 1020 nM
O=C(NCCc1ccc(F)cc1)c1ccc(N2CCN(c3ccncc3)CC2)nc1 | 1420 nM
Cc1ccc(Nc2ccnc(Nc3ccc4c(c3)CS(=O)(=O)C4)n2)cc1O | 720 nM
CC(C)CNCc1cccc(-c2ccccc2CNC2CCN(Cc3ccccc3)CC2)c1 | 580 nM
Nc1ncc(-c2ccc(F)cc2)cc1-c1nc2ccc(Cl)cc2[nH]1 | 750 nM
CC1(C)CCCC(=Cc2ccc(Br)cc2)C1(O)Cn1ccnc1 (stereo unspecified) | 790 nM
O=C(Nc1ccc(OCc2ccccc2)cc1)c1nc2ccccc2nc1Cl | 250 nM
COc1ccc(NC(=O)[C@H](Cc2ccccc2)Nc2nc(NCCN3CCCC3)ncc2C)cc1 | 990 nM

SMILES | IC50
FC(F)(F)c1cccc(NC(=S)NN=Cc2ccccn2)c1 | 350 nM
O=C(Nc1cccc(-c2nn3ncccc3c2-c2ccnc(Nc3cccnc3)n2)c1)c1c(F)cccc1F | 530 nM
CNc1ccc(CNCc2cccc(-c3ccc(-c4nc5c(C)cccc5[nH]4)cc3)c2)cc1 | 660 nM
O=C(NCc1ccccc1)NC1CCN(c2ccnc3cc(Cl)ccc23)C1 (stereo unspecified) | 160 nM
COc1ccc2nc3cc(Cl)ccc3c(NCCCCN)c2c1 | 730 nM
CCOc1ccc2c(NN=Cc3ccccc3OC)cc(C)nc2c1 | 500 nM
Cc1ccccc1Nc1nc(Nc2ccccc2)c2ccccc2n1 | 1000 nM
CC(C)(C)CC(C)(C)c1ccc(O)c(C(=O)Nc2ccc([N+](=O)[O-])cc2)c1 | 770 nM
CNC(=O)c1[nH]c(-c2ccccc2)nc1NC(C)=O | 150 nM
O=C(Nc1cc(Cl)cc(Cl)c1)N[C@H]1CCN(CCCCCNC(=O)[C@@H]2C[C@H]2c2ccc(Cl)c(Cl)c2)C1 | 860 nM
NCc1cccc(-c2ccccc2CNC2CCN(Cc3ccccc3)CC2)c1 | 770 nM
c1ccc(Oc2cccc(Nc3ccnc4ccccc34)c2)cc1 | 1110 nM
CCCCCCN(CCCCCC)CC(O)c1cc(-c2ccc(Cl)cc2)nc2c(C)cc(C)cc12 (stereo unspecified) | 70 nM
O=C(Nc1cccc(-c2cccc(-c3nc4ccc(C(F)(F)F)cc4[nH]3)c2)c1)c1csnn1 | 240 nM
NC1=NC2(CCCC2)N(c2ccc(Cl)cc2)C(N)=N1 | 410 nM
O=C(Oc1ccc(Cl)cc1C(=O)Nc1ccc([N+](=O)[O-])cc1Cl)c1ccccc1 | 910 nM
Cc1cc(NN=CC=Cc2ccccc2)c2cc(F)ccc2n1 | 730 nM
CCOc1ccc2nc(N(CCCn3ccnc3)C(=O)C=Cc3cccs3)sc2c1 | 780 nM
CC(Cc1ccc(OCc2ccccc2)cc1)Nc1nc2ccccc2c(=O)[nH]1 (stereo unspecified) | 570 nM
O=C(N[C@@H](Cc1ccccc1)[C@H](O)CNC1CCOCC1)c1cc(C2CCCC2)cc(N2CCCCS2(=O)=O)c1 | 200 nM
CCOC(=O)NC1=NC(C)(C)N(OCCCOc2cc(Cl)c(Cl)cc2Cl)C(NC(=O)OCC)=N1 | 30 nM
CS(=O)(=O)CCOCc1ccc(-c2ccc3ncnc(Nc4ccc(OCc5cccc(F)c5)c(Cl)c4)c3c2)o1 | 800 nM
COc1ccc2nc(C)cc(N/N=C/C=C/c3ccccc3)c2c1 | 700 nM
COc1ccc2nc3cc(Cl)ccc3c(NCCCCNc3c4ccc(Cl)cc4nc4ccc(OC)cc34)c2c1 | 160 nM
O=C(Nc1ccc(-c2ccc(-c3nc4ccccc4[nH]3)s2)cc1)Nc1ccsc1 | 280 nM
CCCNC(=O)Nc1cc2cc(-c3ccc(CN4CCCC4)cc3)ccc2n2c(C)nnc12 | 1500 nM

SMILES | IC50
O=C(Nc1ccc(N2CCN(c3ncccc3C(F)(F)F)CC2)nc1)c1cccs1 | 1190 nM
CCn1c(O)c(N=NC(=S)N2CCCC2)c2ccccc21 | 1000 nM
Cc1ccc2c(OCCN3CCC(Cc4ccc5c(c4)NC(=O)CO5)CC3)cc(F)cc2n1 | 750 nM
COCCNCC(O)Cn1c2ccc(Cl)cc2c2cc(Cl)ccc21 (stereo unspecified) | 50 nM
CNC(=O)c1ccc2nc(-c3ccc(-c4ccccc4)cc3)n(CC3CCN(CC4CCCC4)CC3)c2c1 | 40 nM
CCCCCCCC1CCN(C[C@H](O)c2ccnc3ccc(OC)cc23)CC1 | 960 nM
Fc1ccc2nc(-c3cccc(-c4cccc(CNCCN5CCNCC5)c4)c3)[nH]c2c1 | 840 nM
C#CCNCc1ccc(-c2ccc(-c3nc4ccc(C(F)(F)F)cc4[nH]3)s2)cc1 | 740 nM
O=C(OCc1ccccn1)c1nc2ccccc2[nH]1 | 790 nM
CC(C)(C)C(Cn1ccnc1)NCc1cn[nH]c1-c1ccc(-c2ccccc2)cc1 (stereo unspecified) | 1060 nM
CCCC(=O)Nc1ccc(OCCCCN(CC(C)(C)C)c2ccc(C#N)c(C(F)(F)F)c2)cc1 | 1350 nM
Cc1nc(NCCc2cnc[nH]2)cc(NCc2ccccc2)n1 | 830 nM
O=C(C=Cc1ccc(Cl)c(Cl)c1)NCCCCCN1CCCC(CCCNC(=O)[C@@H]2C[C@H]2c2ccccc2)C1 (stereo partly specified) | 1130 nM
C=CCn1c(C)cc(C(=O)COc2ccc(S(=O)(=O)N3CCOCC3)cc2[N+](=O)[O-])c1C | 1110 nM
COc1cc2ncnc(Nc3ccc4nc(Cc5ccccc5)[nH]c4c3)c2cc1OC | 1480 nM
CCCCCCN1CCC(CNCc2cccc([N+](=O)[O-])c2)CC1 | 720 nM
Cc1ccc(CN2CCN(Cc3cccc(NC(=O)c4cccs4)c3)CC2)cc1C | 1030 nM
CN(c1cc(NC(=O)c2ccc(F)cc2)ccn1)C1CCN(Cc2cccc(C#N)c2)CC1 | 830 nM
CCN1CCN(c2ccc(NC(=O)c3cc4c(C)nn(-c5ccccc5)c4s3)cc2C)CC1 | 760 nM
COc1cc2nc(N3CCC(CNC(=O)c4ccc(-c5ccc(C(=O)N(C)C)cc5)cc4)CC3)nc(N)c2cc1OC | 750 nM
Cc1cc(-c2ccc(NC(=O)Nc3ccc4nccc(N5CCN(C)CC5)c4c3)cc2C)cc(C)n1 | 150 nM
Cc1noc(C)c1-c1ccc2c(Nc3ccccc3C(C)(C)C)c(C(=O)NC3CCCC3)cnc2c1 | 1040 nM
O=S(=O)(c1c(Cl)cc(Cl)cc1Cl)N1CCCCC(c2ccc(C(F)(F)F)cc2)=N1 | 100 nM
